Earlier results as cited in patent US20200206380A1, “METHOD OF PRODUCING AND PROVIDING AN ANTIMICROBIAL AGENT THAT EXERTS AN EXTENDED RESIDUAL EFFECT” (Dabney Patents, L.L.C., priority 2018, published 2020).
Like-named read-outs stand apart in the source and are kept apart here.

Test system: bacteria
Settings: exposed for 20 seconds

SMILES: OO [hydrogen peroxide]
- % of bacteria killed (hydrogen peroxide used alone): 30%
- % of bacteria killed (in combination with radiation of 360 nm to 500 nm): ≥ 96%
